# Patent US11807835B2, “Detergent compositions containing a stabilized enzyme by phosphonates” (ECOLAB USA INC., priority 2016, dated 2023)
# Key:
# amylase = experiment: Amylase activity retention in detergent use solution (4000 ppm, 5 GPG water; ethylidene substrate EPS, HEPES buffer pH 8.0); format: biochemical
# Description: (§1) The enzyme activities in the detergents with different phosphonate levels were tested at 4000 ppm in 5 grains per gallon (GPG) water at 120° F. with various time points collected up to 4 hours, after a use solution was generated from the detergent composition. During the tests, the samples at different time points were collected and immediately frozen in an acetone/dry ice bath and stored in −80° C. before the activity of the enzyme was evaluated. For the use of such an assay, t=0 min was the reference point for 100% enzyme activity.
# (§2) Assays of enzyme activity in formulations (% retention) were conducted to simulate a presoak condition in a beaker using the chemistry, temperature, and pH conditions relevant to manual warewash or presoak applications. Enzyme activity is an indicator of the stability of the enzyme in the detergent, specifically in an aqueous use solution within a sump (which is under conditions of high pH, temperature and dilution).
# Enzyme activity under presoak or manual warewash conditions was traced quantitatively using a standard protease assay. Samples were prepared under bench top conditions, whereby the use solution from a detergent composition or detergent was obtained and maintained at a presoak or manual warewash temperature in a stirring water bath. After the time course for assessing enzyme stability is initiated, aliquots were taken at various time points and flash-frozen. A time=0 sample was prepared for each series by dissolving the detergent formulation at room temperature, mixing thoroughly, and flash freezing. Samples were thawed and diluted as necessary in an assay buffer usually for use in the protease assay. A glycine buffer at pH 9.0 is used here. The assay monitored the direct reaction of the protease on a small, commercially available peptidyl substrate, with liberation of the product providing correlation to the active enzyme content. The product was detected using a plate reader with an appreciable dynamic range (upper absorbance limit of the instrument >3.5). Enzyme activity levels were assessed relative to a calibration curve with average values for replicate tests used to map protease stability under presoak or manual warewash use conditions. Enzyme retention at each time point was calculated as the % enzyme activity relative to the time=0 sample.
# The analysis by lipase and amylase assay was conducted similarly, except with a different substrate and buffers. For lipase activity, the substrate is p-nitrophenyl valerate, and for amylase, the substrate is an ethylidene substrate (EPS). The buffer used in lipase assay is TRIS (Tris(hydroxymethyl)aminomethane) buffer at pH 8.0, and in amylase assay HEPES (4-(2-hydroxyethyl)-1-piperazineethanesulfonic acid) buffer at pH 8.0.
# [1] = system: enzyme (protease, amylase, lipase); experiment: Overall effects of phosphonates on enzyme activity (Table 3); format: biochemical; settings: overall effect of the phosphonate on enzyme activity in the detergent use solution
# Description: as §1, §2
# The relative enzyme activities in a use solution of the tested detergent compositions containing a different phosphonate at different concentrations over a period time are listed in Table 4A-Table 4E, Table 5A-Table 5E, and Table 6A-Table 6F.
# [2] = All Ash formula, phosphonate 0.3 wt-%, use solution at 120° F., time 0 min
# [3] = All Ash formula, phosphonate 0.3 wt-%, use solution at 120° F., time 5 min
# [4] = All Ash formula, phosphonate 0.3 wt-%, use solution at 120° F., time 10 min
# [5] = All Ash formula, phosphonate 0.3 wt-%, use solution at 120° F., time 20 min
# [6] = All Ash formula, phosphonate 0.3 wt-%, use solution at 120° F., time 40 min
# [7] = All Ash formula, phosphonate 0.3 wt-%, use solution at 120° F., time 60 min
# [8] = All Ash formula, phosphonate 0.3 wt-%, use solution at 120° F., time 90 min
# [9] = All Ash formula, phosphonate 0.3 wt-%, use solution at 120° F., time 120 min
# [10] = All Ash formula, phosphonate 0.3 wt-%, use solution at 120° F., time 150 min
# [11] = All Ash formula, phosphonate 0.3 wt-%, use solution at 120° F., time 180 min
# [12] = All Ash formula, phosphonate 0.3 wt-%, use solution at 120° F., time 210 min
# [13] = All Ash formula, phosphonate 0.3 wt-%, use solution at 120° F., time 240 min
# [14] = base formula, phosphonate 0.3 wt-%, use solution at 120° F., time 0 min
# [15] = base formula, phosphonate 0.3 wt-%, use solution at 120° F., time 5 min
# [16] = base formula, phosphonate 0.3 wt-%, use solution at 120° F., time 10 min
# [17] = base formula, phosphonate 0.3 wt-%, use solution at 120° F., time 20 min
# [18] = base formula, phosphonate 0.3 wt-%, use solution at 120° F., time 40 min
# [19] = base formula, phosphonate 0.3 wt-%, use solution at 120° F., time 60 min
# [20] = base formula, phosphonate 0.3 wt-%, use solution at 120° F., time 90 min
# [21] = base formula, phosphonate 0.3 wt-%, use solution at 120° F., time 120 min
# [22] = base formula, phosphonate 0.3 wt-%, use solution at 120° F., time 150 min
# [23] = base formula, phosphonate 0.3 wt-%, use solution at 120° F., time 180 min
# [24] = base formula, phosphonate 0.3 wt-%, use solution at 120° F., time 210 min
# [25] = base formula, phosphonate 0.3 wt-%, use solution at 120° F., time 240 min
# [26] = base formula, phosphonate 0.6 wt-%, use solution at 120º F., time 0 min
# [27] = base formula, phosphonate 0.6 wt-%, use solution at 120º F., time 5 min
# [28] = base formula, phosphonate 0.6 wt-%, use solution at 120º F., time 10 min
# [29] = base formula, phosphonate 0.6 wt-%, use solution at 120º F., time 20 min
# [30] = base formula, phosphonate 0.6 wt-%, use solution at 120º F., time 40 min
# [31] = base formula, phosphonate 0.6 wt-%, use solution at 120º F., time 60 min
# [32] = base formula, phosphonate 0.6 wt-%, use solution at 120º F., time 90 min
# [33] = base formula, phosphonate 0.6 wt-%, use solution at 120º F., time 120 min
# [34] = base formula, phosphonate 0.6 wt-%, use solution at 120º F., time 150 min
# [35] = base formula, phosphonate 0.6 wt-%, use solution at 120º F., time 180 min
# [36] = base formula, phosphonate 0.6 wt-%, use solution at 120º F., time 210 min
# [37] = base formula, phosphonate 0.6 wt-%, use solution at 120º F., time 240 min
# [38] = base formula, phosphonate at 0.1% elemental phosphorus level, use solution at 120º F., time 5 min
# [39] = base formula, phosphonate at 0.1% elemental phosphorus level, use solution at 120º F., time 10 min
# [40] = base formula, phosphonate at 0.1% elemental phosphorus level, use solution at 120º F., time 20 min
# [41] = base formula, phosphonate at 0.1% elemental phosphorus level, use solution at 120º F., time 40 min
# [42] = base formula, phosphonate at 0.1% elemental phosphorus level, use solution at 120º F., time 60 min
# [43] = base formula, phosphonate at 0.1% elemental phosphorus level, use solution at 120º F., time 90 min
# [44] = base formula, phosphonate at 0.1% elemental phosphorus level, use solution at 120º F., time 120 min
# [45] = base formula, phosphonate at 0.1% elemental phosphorus level, use solution at 120º F., time 180 min
# [46] = base formula, phosphonate at 0.1% elemental phosphorus level, use solution at 120º F., time 210 min
# [47] = base formula, phosphonate at 0.1% elemental phosphorus level, use solution at 120º F., time 240 min
smiles,measurement,setting,value
"CC(O)(P(=O)(O)O)P(=O)(O)O [HEDP, 1-hydroxy ethylidene-1,1-diphosphonic acid]",Relative Amylase Enzyme Activity,amylase; [2],92.90%
same,Relative Amylase Enzyme Activity,amylase; [3],100.00%
same,Relative Amylase Enzyme Activity,amylase; [4],97.04%
same,Relative Amylase Enzyme Activity,amylase; [5],87.85%
same,Relative Amylase Enzyme Activity,amylase; [6],70.85%
same,Relative Amylase Enzyme Activity,amylase; [7],55.60%
same,Relative Amylase Enzyme Activity,amylase; [8],63.30%
same,Relative Amylase Enzyme Activity,amylase; [9],58.18%
same,Relative Amylase Enzyme Activity,amylase; [10],54.50%
same,Relative Amylase Enzyme Activity,amylase; [11],45.78%
same,Relative Amylase Enzyme Activity,amylase; [12],44.79%
same,Relative Amylase Enzyme Activity,amylase; [13],41.67%
same,Relative Amylase Enzyme Activity,amylase; [14],100.00%
same,Relative Amylase Enzyme Activity,amylase; [15],81.99%
same,Relative Amylase Enzyme Activity,amylase; [16],90.32%
same,Relative Amylase Enzyme Activity,amylase; [17],95.23%
same,Relative Amylase Enzyme Activity,amylase; [18],84.92%
same,Relative Amylase Enzyme Activity,amylase; [19],72.27%
same,Relative Amylase Enzyme Activity,amylase; [20],79.95%
same,Relative Amylase Enzyme Activity,amylase; [21],84.46%
same,Relative Amylase Enzyme Activity,amylase; [22],79.54%
same,Relative Amylase Enzyme Activity,amylase; [23],84.18%
same,Relative Amylase Enzyme Activity,amylase; [24],69.49%
same,Relative Amylase Enzyme Activity,amylase; [25],88.63%
same,Relative Amylase Enzyme Activity,amylase; [26],100.00%
same,Relative Amylase Enzyme Activity,amylase; [27],96.09%
same,Relative Amylase Enzyme Activity,amylase; [28],99.71%
same,Relative Amylase Enzyme Activity,amylase; [29],91.20%
same,Relative Amylase Enzyme Activity,amylase; [30],94.89%
same,Relative Amylase Enzyme Activity,amylase; [31],97.28%
same,Relative Amylase Enzyme Activity,amylase; [32],94.67%
same,Relative Amylase Enzyme Activity,amylase; [33],88.12%
same,Relative Amylase Enzyme Activity,amylase; [34],90.33%
same,Relative Amylase Enzyme Activity,amylase; [35],86.96%
same,Relative Amylase Enzyme Activity,amylase; [36],96.92%
same,Relative Amylase Enzyme Activity,amylase; [37],92.50%
same,Relative Amylase Enzyme Activity,amylase; [38],100.00%
same,Relative Amylase Enzyme Activity,amylase; [39],97.58%
same,Relative Amylase Enzyme Activity,amylase; [40],90.30%
same,Relative Amylase Enzyme Activity,amylase; [41],81.48%
same,Relative Amylase Enzyme Activity,amylase; [42],83.84%
same,Relative Amylase Enzyme Activity,amylase; [43],85.26%
same,Relative Amylase Enzyme Activity,amylase; [44],82.59%
same,Relative Amylase Enzyme Activity,amylase; [45],75.47%
same,Relative Amylase Enzyme Activity,amylase; [46],85.77%
same,Relative Amylase Enzyme Activity,amylase; [47],81.23%
same,Stability (effects on enzyme activity),[1],No
"O=C(O)CCC(CC(=O)O)(C(=O)O)P(=O)(O)O (stereo not drawn) [PBTC, Phosphonebutane tricarboxylic acid]",Relative Amylase Enzyme Activity,amylase; [2],98.88%
same,Relative Amylase Enzyme Activity,amylase; [3],100.00%
same,Relative Amylase Enzyme Activity,amylase; [4],94.76%
same,Relative Amylase Enzyme Activity,amylase; [5],90.04%
same,Relative Amylase Enzyme Activity,amylase; [6],63.67%
same,Relative Amylase Enzyme Activity,amylase; [7],58.65%
same,Relative Amylase Enzyme Activity,amylase; [8],54.03%
same,Relative Amylase Enzyme Activity,amylase; [9],45.38%
same,Relative Amylase Enzyme Activity,amylase; [10],44.40%
same,Relative Amylase Enzyme Activity,amylase; [11],41.15%
same,Relative Amylase Enzyme Activity,amylase; [12],41.56%
same,Relative Amylase Enzyme Activity,amylase; [13],40.40%
same,Relative Amylase Enzyme Activity,amylase; [14],100.00%
same,Relative Amylase Enzyme Activity,amylase; [15],96.90%
same,Relative Amylase Enzyme Activity,amylase; [16],94.03%
same,Relative Amylase Enzyme Activity,amylase; [17],86.69%
same,Relative Amylase Enzyme Activity,amylase; [18],83.68%
same,Relative Amylase Enzyme Activity,amylase; [19],86.51%
same,Relative Amylase Enzyme Activity,amylase; [20],84.89%
same,Relative Amylase Enzyme Activity,amylase; [21],85.85%
same,Relative Amylase Enzyme Activity,amylase; [22],76.25%
same,Relative Amylase Enzyme Activity,amylase; [23],81.01%
same,Relative Amylase Enzyme Activity,amylase; [24],81.99%
same,Relative Amylase Enzyme Activity,amylase; [25],81.88%
same,Relative Amylase Enzyme Activity,amylase; [26],100.00%
same,Relative Amylase Enzyme Activity,amylase; [27],107.86%
same,Relative Amylase Enzyme Activity,amylase; [28],111.05%
same,Relative Amylase Enzyme Activity,amylase; [29],106.52%
same,Relative Amylase Enzyme Activity,amylase; [30],73.11%
same,Relative Amylase Enzyme Activity,amylase; [31],79.10%
same,Relative Amylase Enzyme Activity,amylase; [32],71.11%
same,Relative Amylase Enzyme Activity,amylase; [33],64.98%
same,Relative Amylase Enzyme Activity,amylase; [34],74.97%
same,Relative Amylase Enzyme Activity,amylase; [35],85.22%
same,Relative Amylase Enzyme Activity,amylase; [36],94.67%
same,Relative Amylase Enzyme Activity,amylase; [37],97.07%
same,Relative Amylase Enzyme Activity,"amylase; base formula, phosphonate at 0.1% elemental phosphorus level, use solution at 120º F., time 0 min",90.07%
same,Relative Amylase Enzyme Activity,amylase; [38],100.00%
same,Relative Amylase Enzyme Activity,amylase; [39],98.00%
same,Relative Amylase Enzyme Activity,amylase; [40],89.44%
same,Relative Amylase Enzyme Activity,amylase; [41],90.60%
same,Relative Amylase Enzyme Activity,amylase; [42],86.05%
same,Relative Amylase Enzyme Activity,amylase; [43],90.47%
same,Relative Amylase Enzyme Activity,amylase; [44],89.11%
same,Relative Amylase Enzyme Activity,"amylase; base formula, phosphonate at 0.1% elemental phosphorus level, use solution at 120º F., time 150 min",88.36%
same,Relative Amylase Enzyme Activity,amylase; [45],82.80%
same,Relative Amylase Enzyme Activity,amylase; [46],84.45%
same,Relative Amylase Enzyme Activity,amylase; [47],91.39%
same,Stability (effects on enzyme activity),[1],No
